Laboratory results published in the supplement of paper PMC8671470.

Columns and labels:
Details in all cases: 72 h
KCL-22 = assay: cell viability (% survival relative to DMSO control, bortezomib = 0%); higher = less cytotoxic
Summary of the method: (§1)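 Fifteen myeloid leukaemia cell lines were exposed to compounds at 1, 10, 100, 1000 or 10000 nM in 384-well plates for 72 h at 37 °C and 5% CO2. Viability was read by CellTiter-Glo luminescence and normalised, with vehicle as 100% and a 10 µM positive control as 0%. Values are percent survival averaged over duplicates.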

KG-1 = assay: as above
Summary of the method: as §1

MOLM-13 = assay: as above
Summary of the method: as §1

HL-60 = assay: area under dose-response curve (viability, 1 nM-10 uM) (fraction (0-1)); higher = more sensitive
Summary of the method: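 Area under the curve, where listed, was derived from four-parameter log-logistic fits with drc and PharmacoGx. These fits used CellTiter-Glo viability from HL-60 cells in RPMI 1640 with 10% FBS, normalised to DMSO wells and wells holding 10 μM proteasome inhibitor. The full library was rescreened on 384-well plates in duplicate at five tenfold concentrations, 1–10,000 nM, with DMSO or 100 nM of one of three metabolic inhibitors, for 72 h at 37 °C, 5% CO2.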

[1] = co-treatment: GSK2194069 100 nM
[2] = co-treatment: pictilisib 100 nM

Compound | cell viability (KCL-22; 1 nM) | cell viability (KCL-22; 10 nM) | cell viability (KCL-22; 100 nM) | cell viability (KCL-22; 1000 nM) | cell viability (KCL-22; 10000 nM) | cell viability (KG-1; 1 nM) | cell viability (KG-1; 10 nM) | cell viability (KG-1; 100 nM) | cell viability (KG-1; 1000 nM) | cell viability (KG-1; 10000 nM) | cell viability (MOLM-13; 1 nM) | cell viability (MOLM-13; 10 nM) | cell viability (MOLM-13; 100 nM) | cell viability (MOLM-13; 1000 nM) | cell viability (MOLM-13; 10000 nM) | area under dose-response curve (HL-60; co-treatment: AZD3965 100 nM) | area under dose-response curve (HL-60; co-treatment: DMSO vehicle) | area under dose-response curve (HL-60; [1]) | area under dose-response curve (HL-60; [2])
NS(=O)(=O)c1ccc([N+](=O)[O-])cc1 [4-Nitrobenzenesulfonamide] | 103% | 101% | 103% | 93.1% | 91.1% | 107% | 101% | 92.4% | 96.1% | 92.3% | 91.3% | 92.3% | 95.4% | 110% | 107% | < 0.0301 | < 0.0301 | < 0.0301 | < 0.0301
Cc1ccccc1C(C(=O)NC1CCCCC1)N(C(=O)Cn1ccnc1C)c1cccc(F)c1 (configuration not stated) [AGI-5198] | 101% | 114% | 132% | 111% | 104% | 102% | 100% | 128% | 94.9% | 94.5% | 87% | 124% | 108% | 80% | 118% | < 0.0301 | < 0.0301 | < 0.0301 | < 0.0301
CC(C)(C#N)c1cc(Cn2cncn2)cc(C(C)(C)C#N)c1 [Anastrozole] | 102% | 91.6% | 111% | 91.7% | 102% | 98.4% | 97.2% | 103% | 92% | 93.8% | 97.4% | 90.8% | 88.2% | 104% | 103% | < 0.0301 | < 0.0301 | < 0.0301 | < 0.0301
COc1ccc(S(=O)(=O)N2CCN(S(=O)(=O)c3ccc4c(c3)OCCO4)CC2)cc1 [BML283] | 106% | 93.3% | 91.1% | 98.1% | 91.2% | 92.7% | 105% | 99% | 109% | 105% | 96.4% | 81.7% | 100% | 113% | 97.8% | < 0.0301 | < 0.0301 | < 0.0301 | 0.0571
O=c1cc(-c2ccccc2)oc2cc(O)c(O)c(O)c12 [Baicalein] | 95% | 70.2% | 113% | 102% | 49.3% | 96.9% | 96.7% | 112% | 87.8% | 51% | 97.4% | 72% | 132% | 92.1% | 69.3% | < 0.0301 | < 0.0301 | < 0.0301 | < 0.0301
O=c1oc2c(O)c(O)cc3c(=O)oc4c(O)c(O)cc1c4c23 [Benzoaric Acid] | 100% | 111% | 99% | 97.8% | 124% | 103% | 107% | 96.6% | 90.4% | 120% | 92.9% | 99.6% | 96% | 92.9% | 110% | < 0.0301 | < 0.0301 | 0.0302 | 0.0302
O=C(O)CCCCC(CCSCc1ccccc1)SCc1ccccc1 (configuration not stated) [CPI-613] | 110% | 108% | 105% | 115% | 97.2% | 92.4% | 99.7% | 103% | 96.5% | 93.6% | 93.6% | 99% | 98.5% | 75.5% | 94.5% | < 0.0301 | < 0.0301 | < 0.0301 | < 0.0301
CC(C)c1cc2c(c(O)c1O)[C@@]1(C(=O)O)CCCC(C)(C)[C@@H]1CC2 [Carnosic acid] | 101% | 104% | 73.1% | 103% | 90.7% | 92.4% | 96% | 96% | 104% | 103% | 101% | 120% | 84.7% | 124% | 106% | < 0.0301 | < 0.0301 | < 0.0301 | < 0.0301
NC(=O)c1cccc(-c2cccc(OC(=O)NC3CCCCC3)c2)c1 [URB-597] | 105% | 106% | 104% | 98.2% | 109% | 102% | 103% | 102% | 92.8% | 101% | 99.9% | 93.7% | 105% | 93.8% | 117% | – | – | – | –
O=C1O[C@H]([C@@H](O)CO)C(O)=C1O [Vitamin C (ascorbate)] | 90.2% | 96.2% | 97.7% | 88.1% | 92.6% | 112% | 103% | 118% | 97.5% | 106% | 101% | 103% | 91.6% | 94.2% | 107% | – | – | – | –
